This is an account of results in US20100256214A1, “EPH RECEPTOR LIGANDS AND METHODS OF USE” (Burnham Institute for Medical Research, priority 2009, published 2010).

SMILES strings stand for the structures.

The subject of the experiment is EphA2. As to the kind of experiment: EphA2 tyrosine phosphorylation in COS7 cells. It is filed as cell-based. The following applies: for tyrosine phosphorylation of endogenous EphA2: COS7 cells stimulated with ephrin-A1 Fc. As to the method:
FIGS. 6A-6F. A. HT22 neuronal cells pretreated with the indicated concentrations of compounds 1 or 2 for 15 min were stimulated with 0.5 μg/mL ephrin-A5 Fc (+) or Fc as a control (−) for 20 min in the continued presence of the compounds. EphA4 immunoprecipitates were probed with anti-phosphotyrosine antibody (PTyr) and reprobed for EphA4. C indicates immunoprecipitations performed with control antibodies from non-immunized rabbits. […] Error bars represent the standard error from 4 experiments for compound 1 and 3 experiments for compound 2. […] C. COS7 cells pretreated with the indicated concentrations of compounds 1 or 2 for 15 min were stimulated with 0.1 μg/mL ephrin-A1 Fc or Fc as a control in the continued presence of the compounds. EphA2 immunoprecipitates were probed with anti-phosphotyrosine antibody (PTyr) and reprobed for EphA2. C indicates immunoprecipitations performed with control antibodies. […] Error bars represent the standard error from 2 experiments. Statistical analyses were performed as in (B). HUVE cells were left unstimulated or stimulated with TNFα for 2 hours in the presence of 400 μM compound 1. Duplicate untreated samples are shown. C indicates immunoprecipitations performed with control antibodies. EphA2 immunoprecipitates were probed with anti-phosphotyrosine antibody (PTyr) and reprobed for EphA2. Levels of EphA2 phosphorylation quantified from immunoblots and normalized to the amount of immunoprecipitated EphA2 were also performed. […] The same protocol described in (C) was used, except that COS7 cells were stimulated with 0.5 μg/mL of ephrin-B2 Fc and the EphB2 receptor was immunoprecipitated. F. COS7 cells pretreated with the indicated concentrations of compounds 1 or 2 were stimulated with EGF (+) or left unstimulated (−). Lysates were probed with anti-phosphotyrosine antibody (PTyr) and reprobed for the EGF receptor.
Measurement of Receptor Tyrosine Phosphorylation in Cells—HT22 neuronal cells, which endogenously express EphA4, are derived from immortalized mouse hippocampal neurons (Li et al. (1997) Neuron 19(2), 453-463). COST cells, which endogenously express EphA2, EphB2 and the EGF receptor (EGFR), were obtained from ATCC. Both cell lines were grown in Dulbecco's Modified Eagle's Medium (DMEM) (Mediatech, Inc, Herndon, Va.) with 10% fetal bovine serum (FBS) (Hyclone, Logan, Utah) and Pen/Strep. For EphA4 immunoprecipitations, HT22 cells were serum-starved overnight in 0.5% FBS in DMEM and incubated for 15 min with the compounds or DMSO as a control. The cells were then stimulated with 0.5 μg/mL ephrin-A5 Fc, ephrin-A4 Fc or Fc for 20 min in the continued presence of the compounds. […] The protein concentration was calculated using the BCA protein assay kit (Pierce Biotecnology, Rockford, Ill.). […]

Regarding `Cc1ccc(C)n1-c1ccc(C(=O)O)c(O)c1` [compound 1, 4-(2,5-dimethyl-pyrrol-1-yl)-2-hydroxy-benzoic acid], the “ephrin-dependent degradation of EphA2” value is recorded as “prevented” and the “tyrosine phosphorylation of endogenous EphA2” value is on record as “inhibited”.
In the case of `Cc1ccc(C)n1-c1ccc(O)c(C(=O)O)c1` [compound 2, 5-(2,5 dimethyl-pyrrol-1-yl)-2-hydroxy-benzoic acid], the “ephrin-dependent degradation of EphA2” value is “prevented” and the “tyrosine phosphorylation of endogenous EphA2” value is reported as “inhibited”.
